Data set [1] in a line: Critical micelle concentration of the compound. It is filed as ADME.
The next data set addresses Albumin (Bos taurus, UniProt P02769). Description: Binding affinity to bovine serum albumin. The settings on record: cattle, isolated protein.
Data set [2] can be described thus: 1-Octanol-water partition coefficient, log P of the compound. It counts as physicochemical.

Each structure is given as a SMILES string.

The term logP denotes a log measure of how a compound divides between an organic and an aqueous phase. A low value points to a more hydrophilic compound.

Albumin, sequence (P02769 whole entry): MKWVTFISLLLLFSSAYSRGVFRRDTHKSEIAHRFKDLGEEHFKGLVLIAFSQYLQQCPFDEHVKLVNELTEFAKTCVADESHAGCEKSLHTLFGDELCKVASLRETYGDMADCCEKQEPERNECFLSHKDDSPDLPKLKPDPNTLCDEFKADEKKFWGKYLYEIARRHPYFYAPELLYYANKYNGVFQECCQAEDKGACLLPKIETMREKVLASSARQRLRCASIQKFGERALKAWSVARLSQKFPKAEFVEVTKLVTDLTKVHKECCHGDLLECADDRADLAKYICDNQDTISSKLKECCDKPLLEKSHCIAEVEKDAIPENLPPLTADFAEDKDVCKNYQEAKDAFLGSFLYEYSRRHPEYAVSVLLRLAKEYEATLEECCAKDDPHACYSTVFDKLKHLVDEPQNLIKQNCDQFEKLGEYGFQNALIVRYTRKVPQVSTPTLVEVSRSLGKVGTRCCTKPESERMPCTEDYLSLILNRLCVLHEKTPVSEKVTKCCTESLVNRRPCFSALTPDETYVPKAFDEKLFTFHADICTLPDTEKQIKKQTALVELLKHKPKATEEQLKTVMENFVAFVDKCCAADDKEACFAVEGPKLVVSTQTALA

Regarding `CCCCCCCCCC[N+](C)(C)Cc1ccccc1.[Cl-]`, the log1/CMC in data set [1] was determined as 1.47. The “log K” value on Albumin is given as 5.
`CCCCCCCCCCCCCCCCC[N+](C)(C)Cc1ccccc1.[Cl-]` displayed a log1/CMC in data set [1] of 4. The “log K” value at Albumin is on record as 3.55.
On to `CCCCCCCC[N+](C)(C)Cc1ccccc1.[Cl-]`, for which the log1/CMC in data set [1] is 0.67. For the same compound, the “log K” value at Albumin worked out at 4.82.
In the case of `CCCCCCCC[N+](C)(C)Cc1ccccc1`, the logP in data set [2] was -0.29.
Still for that read-out and setting: the result for `CC[N+](C)(C)Cc1ccccc1` reads -3.38.
As to `CCCCCCCCCCCCCCC[N+](C)(C)Cc1ccccc1.[Cl-]`, the log1/CMC in data set [1] is 3.22. Further, the “log K” value on Albumin is given as 3.57.
In turn, `CCCCCC[N+](C)(C)Cc1ccccc1` showed a logP in data set [2] of -1.53.
In data set [1], `CCCCCCCCCCCCC[N+](C)(C)Cc1ccccc1.[Cl-]` [BENZALKONIUM CHLORIDE] displayed a log1/CMC of 2.57. Besides, the “log K” value at Albumin is 3.85.
In the case of `CCCCCCCCCCCCCC[N+](C)(C)Cc1ccccc1.[Cl-]` [MIRISTALKONIUM CHLORIDE], the log1/CMC in data set [1] was determined as 2.92. Also, the “log K” value at Albumin is 3.51.
In turn, `CCCCCCCCCCC[N+](C)(C)Cc1ccccc1.[Cl-]` had a log1/CMC in data set [1] of 1.85. For the same compound, on Albumin, the “log K” value came out at 4.55.
In data set [2], `CCCC[N+](C)(C)Cc1ccccc1` had a logP of -1.85.
In turn, `CCCCCCCCCCCC[N+](C)(C)Cc1ccccc1.[Cl-]` [BENZODODECINIUM CHLORIDE] yielded a log1/CMC in data set [1] of 2.16. In addition, the “log K” value on Albumin is 4.26.
In data set [1], `CCCCCCCCCCCCCCCCCC[N+](C)(C)Cc1ccccc1.[Cl-]` yielded a log1/CMC of 4.48.
For `CCCCCCCCCCCCCCCC[N+](C)(C)Cc1ccccc1.[Cl-]` [CETALKONIUM CHLORIDE], in data set [1], the log1/CMC came out at 3.62. Besides, on Albumin, the “log K” value came to 3.49.
In data set [1], `CCCCCCCCCCCCCCCCCCC[N+](C)(C)Cc1ccccc1.[Cl-]` had a log1/CMC of 4.74.

The values are drawn from ChEMBL document CHEMBL3272310, “Effect of chain length on critical micelle formation and protein binding of quaternary ammonium compounds” (J Med Chem, 1976).
